Source: patent US12391646B2, “Using adiponectin receptor agonists to treat inflammation and bone diseases in diabetes” (Trustees of Tufts College, priority 2020, dated 2025)

Assays:
Type in all cases: cell-based
[1] = test system: RAW 264.7 cells in high glucose medium; test: Osteoclastogenesis and autophagy of RANKL-treated RAW 264.7 cells in high glucose medium; details: high glucose medium
Protocol: FIG. 20 RAW 264.7 cells were treated with RANKL (100 ng/ml) with or without AdipoRon ([…]) or AdipoAI (5 μM) in low (5 mmol/l) glucose, 20 mmol/l D-mannitol or high (25 mmol/l) glucose medium. qRT-PCR analysis of cathepsin K (A), TRAP (B) and microtubule associated protein 1 light chain 3 (LC3) (C), and mRNA expression were calculated (n≥3). (D) Western blot analysis of LC3A/B protein levels normalized to β-actin. (E) The mean of protein/β-actin ratios normalized to 1.0 (RANKL-AdipoRon-AdipoAI-H group) quantified by densitometry. (F) Autophagosome images obtained with laser confocal microscopy after the RAW 264.7 cells were transfected with a GFP-LC3 plasmid and treated with RANKL and AdipoRon or AdipoAI (scale bar=50 μm). Data are shown as mean±SD. *, P<0.05. **P<0.01. ***P<0.001.
FIG. 21 Autophagy inhibitor reverses AdipoAI-inhibited osteoclastogenesis in high glucose medium. RAW 264.7 cells were treated with RANKL (100 ng/ml) in 2 days and with or without AdipoAI (5 μM) for 24 hours followed by 3-methyladenine (3-MA, 2.5 mM) treatment for another 24 hours in high glucose medium. qRT-PCR analysis of cathepsin K (A), TRAP (B) and LC3 (C) mRNA expression were calculated (n≥3). (D) Western blot analysis of LC3A/B protein levels normalized to β-actin. (E) The mean of protein/β-actin ratios normalized to 1.0 (3-MA-, RANKL-, AdipoAI-group) quantified by densitometry. Data are shown as mean±SD. *, P<0.05. **P<0.01. ***P<0.001.
FIG. 22 AdipoAI-induced autophagy of osteoclasts in high glucose medium via AKT1/mTOR signaling pathway. RAW 264.7 cells were induced with RANKL for 2 days and then treated with or without (5 μM) additional 24 hours after serum starvation for 4 hours. Then, the cells were treated with RANKL, AdipoAI or SC79 (5 μM), an AKT activator, for another 24 hours in high glucose medium. qRT-PCR analysis of mRNA expression of cathepsin K (A), TRAP (B) and LC3 (C) were calculated (n≥3). (D) Representative images show the protein expression levels of AKT, p-AKT, AKT1, p-AKT1, mTOR, p-mTOR, and LC3A/B in osteoclasts. Quantitative analysis of bands is shown in (E-K) (n≥3). Data are shown as mean±SD. *, P<0.05. **P<0.01. ***P<0.001. R: RANKL. A, AI: AdipoAI. SC5: SC79 (5 μM).
RAW 264.7 cells (ATCC, Manassas, VA, USA) were cultured and passaged in DMEM supplemented with 10% (v/v) FBS (Invitrogen, Grand Island, NY, USA) and 1% Penicillin-Streptomycin (Gibco, Gaithersburg, MD, USA). For the induction of osteoclastogenesis, RAW 264.7 cells were cultured 24 in α-MEM supplemented with 10% FBS and 1% Penicillin-Streptomycin in the presence of 100 ng/ml RANKL (Peprotech, Rocky Hill, NJ, USA) for 2 days, and subsequently treated or not with AdipoRon or AdipoAI for another 2 days changing cell culture medium every 2 days. After a total of […] of culture, morphologic examination was performed, as was mRNA and protein expression. To simulate high glucose environment in vitro, α-MEM was supplemented with D-glucose to 25 mmol/l (high glucose) or 5 mmol/l (physiological glucose). 20 mmol/l D-mannitol served as an osmotic control.
Total RNA was isolated from cell cultures and gingival soft tissues using TriZol reagent (Life Technologies, Carlsbad, CA, USA) according to the manufacturer's instructions^24. Reverse transcription was performed using the PrimeScript RT Master Mix (Takara Bio, Otsu, Japan) and real-time-qPCR analyses were performed using SYBR-Green Real-Time PCR Master Mix (Takara Bio, Otsu, Japan) as described earlier^27.
Total cellular extracts were prepared using RIPA Lysis and Extraction Buffer containing three Protease Inhibitors (Santa Cruz, Dallas, TX, USA). Western blot analyses were performed as previously described 24. Antibodies for β-actin (1:2000) and GAPDH (1:5000), LC3A/B (1:1000), AKT1 (1:1000), p-AKT1 (1:1000), AKT (1:1000), p-AKT (1:1000), mTOR (1:1000), p-mTOR (1:1000) were purchased from Abcam and Cell Signaling Technology, respectively. SC79, an AKT activator was purchased from Sigma Aldrich. […]

[2] = test system: LPS-stimulated RAW 264.7 macrophages; test: qPCR of cytokine mRNA in LPS-stimulated RAW 264.7 macrophages; details: compounds at 5 μM vs APR at 20 μM, 24 h pretreatment, then LPS 100 ng/mL 6 h
Protocol: (§1) FIG. 1 Characterization of anti-inflammatory properties of APR-like compounds. (a) Raw264.7 cells were pretreated with APR (20 μM) or new compounds 1 to 10 (5 μM) for 24 h followed by incubation with LPS (100 ng/mL) for an additional 6 h. IL-6 and IL-1β mRNA expression levels were evaluated by qPCR and normalized with GAPDH mRNA level. (b) Raw264.7 cells were pretreated with different doses of AdipoAI for 24 h followed by incubation with LPS (100 ng/mL) for additional 6 h to evaluate dose-dependency of AdipoAI in inhibiting IL-6 and IL-1β mRNA expression levels by qRT-PCR and normalized with GAPDH mRNA level. (c) Evaluation of cytotoxicity of APR, AdipoAI and compound 5 by CCK8 assay in Raw264.7 cells treated for 24 hours. (d) BMMs were pretreated with APR (20 μM), AdipoAI (5 μM) or compound 5 (5 μM) for 24 h followed by incubation with LPS (100 ng/ml) for additional 6 h for the measurement of IL-6 and IL-1β mRNA expression levels by qRT-PCR and normalized with GAPDH mRNA level. Data were expressed as the mean±SEM at five biological independent experiments. One-way ANOVA test for multiple-group comparisons, *P<0.05, significant differences between each indicated group.
RAW 264.7 macrophage cell line was purchased from ATCC (Manassas, VA, USA) and maintained in DMEM (Gibco, Life Technologies, Carlsbad, CA, USA) supplemented with 10% (v.v-1) FBS (Gibco, Life Technologies) and 1% (v.v-1) penicillin/streptomycin (Gibco, Life Technologies). The cells were routinely cultured in an incubator at 37° C. in a humidified atmosphere of 5% CO2.
Total RNA of cells was extracted using Quick-RNA Miniprep Kit (ZYMO Research, Irvine, CA, USA) and total RNA from mouse tissues was prepared with TriZol reagent (Life Technologies) according to the manufacturer's instructions followed by qRT-PCR assays as described previously (L. Zhang et al., 2014). 1 μg of total RNA was used for reverse transcription using the M-MLV Reverse Transcriptase (Thermo Scientific, Waltham, MA, USA) according to the manufacturer's protocol using PowerUp SYBR Green Master Mix (Thermo Scientific) on a Bio-Rad iQ5 thermal cycler (Bio-Rad Laboratories, Hercules, CA, USA). Differences in expression were evaluated by the comparative cycle threshold method using GAPDH or β-actin as a control. The primer sequences used for the qRT-PCR experiments are listed in supplemental Table 1.
Macrophages were seeded at a density of 5×10^5 cells/well in 12-well plates. After overnight incubation, the cells were transfected for 24 h with siRNAs targeting specific genes or scrambled control siRNAs using HiPerFect Transfection Reagent (Qiagen, Hilden, Germany) according to the manufacturer's guidelines. Gene silencing efficiency was monitored by qPCR or Western blot analysis. The siRNA duplexes used in this study were chemically synthesized by Thermo Scientific.

[3] = test system: Raw264.7 cells; test: CCK-8 cytotoxicity assay, 24 hours; details: at 40 μM or lower concentrations
Protocol: as §1
Raw264.7 cells were seeded at 2×10^3 cells/well in 96-well plates for 16 hours and then serum-starved for 6 hours. Cells were maintained in DMEM in the presence of different concentrations of APR (AdipoGen Life Sciences, San Diego, CA, USA) and compounds for 24 hours. […] The detailed group assignment is shown in the individual figure legends.

## Cn1cnc(N)c2ncnc1-2 [3-methyladenine, reference compound]
[1]; 3-MA 2.5 mM 24 hours
  LC3 mRNA and LC3II protein induced by AdipoAI: decreased the mRNA expression of LC3 and protein expression of LC3II induced by AdipoAI
[1]; 3-MA 2.5 mM
  AdipoAI-inhibited mRNA expression of Cathepsin K and TRAP: reversed the AdipoAI-inhibited mRNA expression of osteoclastogenesis markers Cathepsin K and TRAP

## CC(c1ccccc1)N1CCC(NC(=O)COc2ccc(C(=O)c3ccc(Cl)cc3)cc2)CC1 (stereo not drawn) [Compound 5]
[2]
  inhibition of IL-6 and IL1-β mRNA expression: stronger inhibitory effects than APR
[3]
  cytotoxic effects (CCK-8): neither of the 3 small molecules mediated significant cytotoxic effects

## CCOC(=O)C1=C(N)Oc2ccc(Cl)cc2C1C(C#N)C(=O)OCC (stereo not drawn) [SC79, reference compound]
[1]; SC79 5 μM
  LC3II, AKT expression and AKT, AKT1, mTOR phosphorylation changes induced by AdipoAI: reverses the promoted expression of LC3II
  LC3 mRNA and osteoclastogenic marker mRNA under AdipoAI: reverses the upregulated expression of LC3 mRNA and downregulated expression of osteoclastogenic markers
